Laboratory results: PubChem BioAssay AID1259407 (Chemical Carcinogenesis Research Information System (CCRIS), 2018)
Calls of active or inactive are those of the source. No rule for the calls is given here.

Tested on: CCRIS mutagenicity, Ames/micronucleus/aberration tests
Assay: CCRIS mutagenicity studies
[1] = Test System: AMES SALMONELLA TYPHIMURIUM, Strain/Indicator: TA98, Metabolic Activation: NONE, Method: STANDARD PLATE
[2] = Test System: AMES SALMONELLA TYPHIMURIUM, Strain/Indicator: TA100, Metabolic Activation: NONE, Method: STANDARD PLATE
[3] = Test System: AMES SALMONELLA TYPHIMURIUM, Strain/Indicator: TA1535, Metabolic Activation: NONE, Method: STANDARD PLATE
[4] = Test System: AMES SALMONELLA TYPHIMURIUM, Strain/Indicator: TA1537, Metabolic Activation: NONE, Method: STANDARD PLATE
[5] = Test System: AMES SALMONELLA TYPHIMURIUM, Strain/Indicator: TA1538, Metabolic Activation: NONE, Method: STANDARD PLATE

With `Cl` the mutagenic call (End Point: IN VITRO CHROMOSOMAL ABERRATIONS, Test System: CHO-WBL CELLS, Metabolic Activation: NONE) was “active; positive (structural changes); osmolality of solution decisive factor”, the mutagenic call (Test System: AMES SALMONELLA TYPHIMURIUM, Strain/Indicator: TA97, Metabolic Activation: NONE, Method: PREINCUBATION) was “inactive; negative” and the mutagenic call (Test System: AMES SALMONELLA TYPHIMURIUM, Strain/Indicator: TA97, Metabolic Activation: NONE, Method: STANDARD PLATE) was “inactive; negative”. For the same compound, the mutagenic call (Test System: AMES SALMONELLA TYPHIMURIUM, Strain/Indicator: TA97, Metabolic Activation: RAT, LIVER, S-9, AROCLOR 1254, Method: PREINCUBATION) was “inactive; negative”, the mutagenic call (Test System: AMES SALMONELLA TYPHIMURIUM, Strain/Indicator: TA97, Metabolic Activation: RAT, LIVER, S-9, PHENOBARBITAL, Method: STANDARD PLATE) was “inactive; negative” and the mutagenic call (Test System: AMES SALMONELLA TYPHIMURIUM, Strain/Indicator: TA98, Metabolic Activation: NONE, Method: PREINCUBATION) was “inactive; negative”. For the same compound, the mutagenic call [1] was “inactive; negative”, the mutagenic call (Test System: AMES SALMONELLA TYPHIMURIUM, Strain/Indicator: TA98, Metabolic Activation: RAT, LIVER, S-9, KC 500, Method: PREINCUBATION) was “inactive; negative” and the mutagenic call (Test System: AMES SALMONELLA TYPHIMURIUM, Strain/Indicator: TA98, Metabolic Activation: RAT, LIVER, S-9, PHENOBARBITAL, Method: STANDARD PLATE) was “inactive; negative”. For the same compound, the mutagenic call (Test System: AMES SALMONELLA TYPHIMURIUM, Strain/Indicator: TA100, Metabolic Activation: NONE, Method: PREINCUBATION) was “inactive; negative”, the mutagenic call [2] was “inactive; negative” and the mutagenic call (Test System: AMES SALMONELLA TYPHIMURIUM, Strain/Indicator: TA100, Metabolic Activation: RAT, LIVER, S-9, KC 500, Method: PREINCUBATION) was “inactive; negative”. For the same compound, the mutagenic call (Test System: AMES SALMONELLA TYPHIMURIUM, Strain/Indicator: TA100, Metabolic Activation: RAT, LIVER, S-9, PHENOBARBITAL, Method: STANDARD PLATE) was “inactive; negative”, the mutagenic call (Test System: AMES SALMONELLA TYPHIMURIUM, Strain/Indicator: TA102, Metabolic Activation: NONE, Method: PREINCUBATION) was “inactive; negative” and the mutagenic call (Test System: AMES SALMONELLA TYPHIMURIUM, Strain/Indicator: TA102, Metabolic Activation: RAT, LIVER, S-9, AROCLOR 1254, Method: PREINCUBATION) was “inactive; negative”. The mutagenic call (Test System: AMES SALMONELLA TYPHIMURIUM, Strain/Indicator: TA1535, Metabolic Activation: NONE, Method: PREINCUBATION) was “inactive; negative”, the mutagenic call [3] was “inactive; negative” and the mutagenic call (Test System: AMES SALMONELLA TYPHIMURIUM, Strain/Indicator: TA1535, Metabolic Activation: RAT, LIVER, S-9, KC 500, Method: PREINCUBATION) was “inactive; negative”. The mutagenic call (Test System: AMES SALMONELLA TYPHIMURIUM, Strain/Indicator: TA1535, Metabolic Activation: RAT, LIVER, S-9, PHENOBARBITAL, Method: STANDARD PLATE) was “inactive; negative”, the mutagenic call (Test System: AMES SALMONELLA TYPHIMURIUM, Strain/Indicator: TA1537, Metabolic Activation: NONE, Method: PREINCUBATION) was “inactive; negative” and the mutagenic call [4] was “inactive; negative”. For the same compound, the mutagenic call (Test System: AMES SALMONELLA TYPHIMURIUM, Strain/Indicator: TA1537, Metabolic Activation: RAT, LIVER, S-9, KC 500, Method: PREINCUBATION) was “inactive; negative”, the mutagenic call (Test System: AMES SALMONELLA TYPHIMURIUM, Strain/Indicator: TA1537, Metabolic Activation: RAT, LIVER, S-9, PHENOBARBITAL, Method: STANDARD PLATE) was “inactive; negative” and the mutagenic call (Test System: AMES SALMONELLA TYPHIMURIUM, Strain/Indicator: TA1538, Metabolic Activation: NONE, Method: PREINCUBATION) was “inactive; negative”. The mutagenic call [5] was “inactive; negative”, the mutagenic call (Test System: AMES SALMONELLA TYPHIMURIUM, Strain/Indicator: TA1538, Metabolic Activation: RAT, LIVER, S-9, KC 500, Method: PREINCUBATION) was “inactive; negative” and the mutagenic call (Test System: AMES SALMONELLA TYPHIMURIUM, Strain/Indicator: TA1538, Metabolic Activation: RAT, LIVER, S-9, PHENOBARBITAL, Method: STANDARD PLATE) was “inactive; negative”. The mutagenic call (Test System: E. COLI, Strain/Indicator: WP2 UVRA, Metabolic Activation: NONE, Method: PREINCUBATION) was “inactive; negative”, the mutagenic call (Test System: E. COLI, Strain/Indicator: WP2 UVRA, Metabolic Activation: NONE, Method: SPOT TEST) was “inactive; negative” and the mutagenic call (Test System: E. COLI, Strain/Indicator: WP2 UVRA, Metabolic Activation: RAT, LIVER, S-9, KC 500, Method: PREINCUBATION) was “inactive; negative”. The mutagenic call (Test System: MOUSE LYMPHOMA, Strain/Indicator: L5178Y (TK+/TK-), Metabolic Activation: NONE, Method: SUSPENSION/PLATE) was “inactive; negative”, the mutagenic call (Test System: MOUSE LYMPHOMA, Strain/Indicator: L5178Y (TK+/TK-), Metabolic Activation: RAT, LIVER, S-9, AROCLOR 1254, Method: SUSPENSION/PLATE) was “active; positive” and the mutagenic call (Test System: MOUSE LYMPHOMA, Strain/Indicator: L5178Y (TK+/TK-), Metabolic Activation: RAT, LIVER, S-9, Method: SUSPENSION/PLATE) was “active; positive”.

`Cc1cc(NS(=O)(=O)c2ccc(N)cc2)no1` was tested, and the mutagenic call (End Point: AMES SALMONELLA TYPHIMURIUM, Test System: TA98, Metabolic Activation: NONE, Method: STANDARD PLATE) was “active; positive” and the mutagenic call (End Point: AMES SALMONELLA TYPHIMURIUM, Test System: TA100, Metabolic Activation: NONE, Method: STANDARD PLATE) was “active; positive”.

For `C(CCC1CO1)CC1CO1` (stereo unspecified), the mutagenic call (Test System: AMES SALMONELLA TYPHIMURIUM, Strain/Indicator: TA97A, Metabolic Activation: NONE, Method: STANDARD PLATE) was “active; positive”, the mutagenic call [2] was “active; positive” and the mutagenic call (Test System: AMES SALMONELLA TYPHIMURIUM, Strain/Indicator: TA102, Metabolic Activation: NONE, Method: STANDARD PLATE) was “active; positive”. For the same compound, the mutagenic call (Test System: AMES SALMONELLA TYPHIMURIUM, Strain/Indicator: TA102, Metabolic Activation: RAT LIVER S-9, AROCLOR 1254, Method: STANDARD PLATE) was “active; positive”, the mutagenic call [3] was “active; positive” and the mutagenic call [4] was “inactive; negative”.

With `Nc1cc2c(O)c(N=Nc3ccc(N=Nc4ccc(S(=O)(=O)O)cc4)c4ccc(S(=O)O)cc34)c(S(=O)(=O)O)cc2cc1S(=O)(=O)O` the mutagenic call [1] was “inactive; negative”, the mutagenic call (Test System: AMES SALMONELLA TYPHIMURIUM, Strain/Indicator: TA98, Metabolic Activation: RAT, LIVER, S-9, AROCLOR 1254, Method: STANDARD PLATE) was “inactive; negative” and the mutagenic call [2] was “inactive; negative”. The mutagenic call (Test System: AMES SALMONELLA TYPHIMURIUM, Strain/Indicator: TA100, Metabolic Activation: RAT, LIVER, S-9, AROCLOR 1254, Method: STANDARD PLATE) was “inactive; negative”, the mutagenic call [3] was “inactive; negative” and the mutagenic call (Test System: AMES SALMONELLA TYPHIMURIUM, Strain/Indicator: TA1535, Metabolic Activation: RAT, LIVER, S-9, AROCLOR 1254, Method: STANDARD PLATE) was “inactive; negative”. For the same compound, the mutagenic call [4] was “inactive; negative”, the mutagenic call (Test System: AMES SALMONELLA TYPHIMURIUM, Strain/Indicator: TA1537, Metabolic Activation: RAT, LIVER, S-9, AROCLOR 1254, Method: STANDARD PLATE) was “inactive; negative” and the mutagenic call [5] was “inactive; negative”. The mutagenic call (Test System: AMES SALMONELLA TYPHIMURIUM, Strain/Indicator: TA1538, Metabolic Activation: RAT, LIVER, S-9, AROCLOR 1254, Method: STANDARD PLATE) was “inactive; negative”.
